Data taken from US20060063759A1, “Tricyclic steroid hormone nuclear receptor modulators” (priority 2002, published 2006).

What was measured:
human MR = molecular target: T1, human MR (Homo sapiens, UniProt P08235); assay: Mineralocorticoid Receptor Binding Assay ([3H]-aldosterone); conditions: [3H]-aldosterone binding, human MR expressed in Sf9 cells; read-out: MR Ki
T1 construct: The full length human MR gene is cloned from a human kidney or human brain cDNA library; His tag from the pAcHLT vector (own knowledge); made in house; host or cells: Sf9 insect cells (baculovirus, pAcHLT transfer vector)
T1 sequence (P08235 1-984): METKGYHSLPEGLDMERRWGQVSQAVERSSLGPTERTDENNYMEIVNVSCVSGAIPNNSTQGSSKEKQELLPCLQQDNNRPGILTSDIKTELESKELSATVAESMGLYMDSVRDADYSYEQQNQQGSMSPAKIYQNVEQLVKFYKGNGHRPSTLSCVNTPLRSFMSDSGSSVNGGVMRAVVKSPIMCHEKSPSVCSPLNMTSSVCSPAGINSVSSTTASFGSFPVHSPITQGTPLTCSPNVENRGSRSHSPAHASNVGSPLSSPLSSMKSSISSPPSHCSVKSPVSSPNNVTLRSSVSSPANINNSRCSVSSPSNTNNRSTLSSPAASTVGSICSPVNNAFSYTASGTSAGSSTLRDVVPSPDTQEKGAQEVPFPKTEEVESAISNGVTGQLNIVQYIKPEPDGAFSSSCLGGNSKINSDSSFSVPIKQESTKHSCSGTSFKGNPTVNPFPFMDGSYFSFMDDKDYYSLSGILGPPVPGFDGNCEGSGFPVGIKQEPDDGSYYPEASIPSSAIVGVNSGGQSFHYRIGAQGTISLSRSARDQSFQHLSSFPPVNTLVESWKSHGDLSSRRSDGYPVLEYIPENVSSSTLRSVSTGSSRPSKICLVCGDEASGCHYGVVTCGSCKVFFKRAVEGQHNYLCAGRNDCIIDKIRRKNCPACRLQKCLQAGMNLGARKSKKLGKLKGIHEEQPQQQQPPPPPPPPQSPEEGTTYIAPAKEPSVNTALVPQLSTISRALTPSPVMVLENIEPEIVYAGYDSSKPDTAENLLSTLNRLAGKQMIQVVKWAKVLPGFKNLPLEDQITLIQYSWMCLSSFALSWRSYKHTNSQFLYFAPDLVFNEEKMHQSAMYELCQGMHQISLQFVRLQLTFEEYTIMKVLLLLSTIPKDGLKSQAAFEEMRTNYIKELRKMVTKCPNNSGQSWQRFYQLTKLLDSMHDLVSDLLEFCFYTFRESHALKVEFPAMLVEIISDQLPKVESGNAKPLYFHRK
Experimental: (§1) All ligands, radioligands, solvents, and reagents employed in the binding assays are readily available from commercial sources, or can be readily synthesized by the ordinarily skilled artisan.
The full length human MR gene is cloned from a human kidney or human brain cDNA library. […] The PCR reaction is performed in a final volume of 50 μl containing about 1 μl of a 50× stock solution of polymerase; about 1 μl of a 50× stock solution of dNTP; about 5 μl of an appropriate PCR buffer; about 1 μl of each primer; about […] of a H. kidney or H. brain cDNA library; and about 36 μl of water. The reaction is allowed to denature for about 30 seconds at 95 degrees Celsius, anneal for about 30 seconds at 55 degrees Celsius, and extend for about 5 minutes at 72 degrees Celsius, the sequence being repeated for a total of about 35 cycles. […] To extract the cDNA product from the agarose gel, the QIAEX II Gel Extraction protocol (QIAGEN, Inc.) is employed according to the manufacturer's instructions. Following extraction, the MR cDNA is cloned into an appropriate cloning vector (Zero Blunt TOPO PCR Cloning Kit Invitrogen, Inc.) and a pAcHLT-baculovinis transfer vector (B.D./Pharminogen), then expressed in SF9 insect cells, essentially according to manufacturer's instructions. Sf9 cells are grown at a scale where gram quantity cell pellets are obtained for subsequent use in the MR binding assay. Harvested cell pellets are lysed by repeated freeze-thaw cycles (about 4) in a suitable lysis buffer then centrifuged at about 1×10^3 G (with the supernatant being saved for future assays).
MR binding assays are performed in a final total volume of about 250 μl containing about 20-25 μg of protein and 0.5 nM of [^3H]-aldosterone plus varying concentrations of test compound or vehicle. The assay binding buffer consists of 30 mM sodium molybdate, 30 mM of TRIS-HCl, 5 mM sodium phosphate, 5 mM sodium pyrophosphate, and about 10% glycerol, pH=7.5.
Incubations are carried out at 4 degrees Celsius with shaking for about 16 hours. 200 μl aliquots of each incubation are filtered onto Millipore HA 0.45 micron 96-well filter plates, pre-moistened with cold 30 mM TRIS-HCl. The filter plates are suctioned dry with vacuum and immediately washed 3× with cold 30 mM TRIS-HCl. The plates are then punched out and the amount of receptor-ligand complex is determined by liquid scintillation counting using 4 ml of Ready Protein Plus™ liquid scintillation cocktail.
IC50 values (defined as the concentration of test compound required to decrease [^3H]-aldosterone binding by 50%/o) are then determined.

glucocorticoid receptor = molecular target: T2, glucocorticoid receptor (Homo sapiens, UniProt P04150); assay: Glucocorticoid Receptor Binding Assay ([3H]-dexamethasone, A549 cell extract); conditions: [3H]-dexamethasone binding, read-out: GR Ki
T2 construct: containing 50-200 ug of A549 cell extract and 1.86 nM [^3H]-dexamethasone; host or cells: A549 human lung epithelial cells (sonicated cell extract)
T2 sequence (P04150 1-777): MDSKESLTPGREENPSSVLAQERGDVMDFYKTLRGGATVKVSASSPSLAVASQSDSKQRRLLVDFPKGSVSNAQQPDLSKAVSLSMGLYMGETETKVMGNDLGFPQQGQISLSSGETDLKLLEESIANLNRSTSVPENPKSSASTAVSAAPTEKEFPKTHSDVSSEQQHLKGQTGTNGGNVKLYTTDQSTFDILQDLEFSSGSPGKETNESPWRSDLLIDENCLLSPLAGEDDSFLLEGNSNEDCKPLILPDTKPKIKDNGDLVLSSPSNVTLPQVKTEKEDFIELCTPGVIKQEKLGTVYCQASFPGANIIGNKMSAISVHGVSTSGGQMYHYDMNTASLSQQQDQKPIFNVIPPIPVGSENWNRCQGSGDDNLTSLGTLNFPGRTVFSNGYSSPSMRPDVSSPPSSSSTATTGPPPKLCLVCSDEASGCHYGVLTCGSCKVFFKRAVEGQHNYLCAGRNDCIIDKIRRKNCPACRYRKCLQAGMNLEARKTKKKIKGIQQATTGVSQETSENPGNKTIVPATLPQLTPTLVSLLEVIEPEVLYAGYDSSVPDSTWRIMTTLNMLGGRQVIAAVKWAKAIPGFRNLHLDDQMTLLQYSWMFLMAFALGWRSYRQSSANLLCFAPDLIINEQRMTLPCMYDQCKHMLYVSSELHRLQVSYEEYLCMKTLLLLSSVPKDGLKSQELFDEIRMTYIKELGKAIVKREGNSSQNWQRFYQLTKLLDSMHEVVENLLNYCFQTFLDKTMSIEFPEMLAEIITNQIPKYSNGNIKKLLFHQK
Experimental: as §1
A549 human lung epithelial cells (ATCC) are grown at a scale where gram quantity cell pellets are obtained. Harvested cell pellets are washed twice in cold phosphate buffered saline, centrifuged, and resuspended in cold assay binding buffer. The assay binding buffer consists of 10% glycerol, 50 mM Tris-HCl (pH7.2), 75 mM sodium chloride, 1.5 mM magnesium chloride, 1.5 mM EDTA, and 10 mM sodium molybdate. Cell suspensions were lysed via sonication, centrifuged, and the “extract” supernatant is snap frozen and stored at −80 C until needed.
GR binding assays are performed in a final volume of 140 ul containing 50-200 ug of A549 cell extract and 1.86 nM [^3H]-dexamethasone (Amersham) plus varying concentrations of test compound or vehicle. Briefly, assays are prepared at RT in 96-well Fisher 3356 plates, each well containing 100 ul of A549 cell extract, 20 ul of [^3H]-dexamethasone, and 20 ul of test compound/vehicle. Incubations are carried out at 4 degrees Celsius for 16 hours. After incubation, 70 ul of 3× dextran-coated charcoal solution is added to each reaction, mixed, and incubated for 8 minutes at RT. 3×-dextran-coated charcoal solution consists of 250 ml assay binding buffer, 3.75 g Norit A charcoal (Sigma), and 1.25 g dextran T-70 (Amersham). Charcoal/unbound radioligand complexes are removed by centrifugation of the plate and 140 ul of supernatant from each well is transferred to another 96 well Optiplate (Packard Instruments). 200 ul of Microscint-20 scinillant (Packard Instruments) is added to each well and amount of receptor bound radioligand is determined using Packard Instruments TopCount instrument.

Row | Ki (human MR) [nM] | Ki (glucocorticoid receptor) [nM] | SMILES
1 | < 500 | < 1000 | Oc1ccc(C=C2c3ccccc3CCc3c(Cl)cccc32)cc1 (mixture of isomers) [Example 212, 4-(1-Chloro-10,11-dihydro-dibenzo[a,d]cyclohepten-5-ylidenemethyl)-phenol]
2 | < 500 | < 500 | CS(=O)(=O)Nc1cccc(C=C2c3ccccc3CCc3ccc(F)cc32)c1 (mixture of isomers) [Example 214, N-[3-(3-Fluoro-10,11-dihydro-dibenzo[a,d]cyclohepten-5-ylidenemethyl)-phenyl]-methanesulfonamide]
3 | < 500 | < 500 | Oc1cccc(C=C2c3ccccc3CCc3ccc(F)cc32)c1 (mixture of isomers) [Example 215, 3-(3-Fluoro-10,11-dihydro-dibenzo[a,d]cyclohepten-5-ylidenemethyl)-phenol]
4 | < 500 | < 1000 | Nc1cccc(C=C2c3ccccc3CCc3cc(Cl)ccc32)c1 (mixture of isomers) [Example 289, 3-(2-Chloro-10,11-dihydro-dibenzo[a,d]cyclohepten-5-ylidenemethyl)-phenylamine]
5 | < 500 | < 10000 | O=C1Nc2ccccc2C(=Cc2cccc(Cl)c2)c2ccccc21 (mixture of isomers) [Example 649]
6 | < 500 | < 500 | O=C1Nc2ccc(Cl)cc2C(=Cc2cccc(Cl)c2)c2ccccc21 (mixture of isomers) [Example 655]
7 | < 500 | < 500 | COc1ccc2c(c1)COc1ccccc1C2C(C)c1cccc(NS(C)(=O)=O)c1 (racemic) [Example 752, N-{3-[1-(8-Methoxy-6,11-dihydro-dibenzo[b,e]oxepin-11-yl)-ethyl]-phenyl}-methanesulfonamide]

More lines, now with the values behind:

Row | SMILES | Ki (human MR) [nM] | Ki (glucocorticoid receptor) [nM]
8 | CS(=O)(=O)Nc1cccc(CC2c3ccccc3CCc3cc(Cl)ccc32)c1 (racemic) [Example 207, N-[3-(2-Chloro-10,11-dihydro-5H-dibenzo[a,d]cycloheptenylmethyl)-phenyl]-methanesulfonamide] | < 500 | < 500
9 | Oc1cc(C=C2c3ccccc3CCc3c(Cl)cccc32)ccc1Cl [173(a), 2-Chloro-5-(1-chloro-10,11-dihydro-dibenzo[a,d]cyclohepten-5-ylidenemethyl)-phenol] | < 500 | < 500
10 | Oc1cc(C=C2c3ccccc3CCc3c(Cl)cccc32)ccc1Cl [173(b), 2-Chloro-5-(1-chloro-10,11-dihydro-dibenzo[a,d]cyclohepten-5-ylidenemethyl)-phenol] | < 500 | < 10000
11 | Oc1cccc(C=C2c3ccccc3CCc3cc(Cl)ccc32)c1 [181(a), 3-(2-Chloro-10,11-dihydro-dibenzo[a,d]cyclohepten-5-ylidenemethyl)-phenol] | < 500 | < 500
12 | CS(=O)(=O)Nc1cccc(C=C2c3ccccc3CCc3c(F)cccc32)c1 [184(a), N-[3-(1-Fluoro-10,11-dihydro-dibenzo[a,d]cyclohepten-5-ylidenemethyl)-phenyl]-methanesulfonamide] | < 500 | < 500
13 | Oc1cccc(C=C2c3ccccc3CCc3c(F)cccc32)c1 [185(a), 3-(1-Fluoro-10,11-dihydro-dibenzo[a,d]cyclohepten-5-ylidenemethyl)-phenol] | < 500 | < 500
14 | Oc1cccc(C=C2c3ccccc3CCc3c(F)cccc32)c1 [185(b), 3-(1-Fluoro-10,11-dihydro-dibenzo[a,d]cyclohepten-5-ylidenemethyl)-phenol] | < 500 | < 1000
15 | CS(=O)(=O)Nc1cccc(C=C2c3ccccc3CCc3ccc(Cl)cc32)c1 [188(a), N-[3-(3-Chloro-10,11-dihydro-dibenzo[a,d]cyclohepten-5-ylidenemethyl)-phenyl]-methanesulfonamide] | < 500 | < 500
16 | Oc1cccc(C=C2c3ccccc3CCc3cc(OCCN4CCOCC4)ccc32)c1 [195(a), 3-[2-(2-Morpholin-4-yl-ethoxy)-10,11-dihydro-dibenzo[a,d]cyclohepten-5-ylidenemethyl]-phenol] | < 500 | < 1000
17 | CS(=O)(=O)Nc1cccc(C=C2c3ccccc3CCc3c2ccc(Cl)c3Cl)c1 [197(a), N-[3-(1,2-Dichloro-10,11-dihydro-dibenzo[a,d]cyclohepten-5-ylidenemethyl)-phenyl]-methanesulfonamide] | < 500 | < 500
